Test results published in ChEMBL document CHEMBL5291721, “A preclinical secondary pharmacology resource illuminates target-adverse drug reaction associations of marketed drugs” (Nat Commun, 2023).

Assays:
[1] = biological target: Sodium-dependent dopamine transporter (Homo sapiens, UniProt Q01959)
[2] = biological target: T1, 5-hydroxytryptamine receptor 1A (Homo sapiens, UniProt P08908)
T1 sequence (P08908 whole entry): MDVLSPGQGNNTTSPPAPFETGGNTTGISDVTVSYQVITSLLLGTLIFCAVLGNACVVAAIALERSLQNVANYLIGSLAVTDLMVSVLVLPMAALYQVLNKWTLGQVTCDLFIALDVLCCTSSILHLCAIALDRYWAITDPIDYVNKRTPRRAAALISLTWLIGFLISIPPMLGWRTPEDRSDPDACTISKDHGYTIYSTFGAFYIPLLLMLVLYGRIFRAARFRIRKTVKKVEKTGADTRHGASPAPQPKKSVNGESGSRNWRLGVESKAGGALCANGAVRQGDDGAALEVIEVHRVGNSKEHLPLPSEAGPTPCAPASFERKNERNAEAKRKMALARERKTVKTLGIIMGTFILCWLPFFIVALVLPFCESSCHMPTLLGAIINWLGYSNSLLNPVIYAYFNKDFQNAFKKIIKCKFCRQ

Thromboxane A2 receptor [3] = biological target: T2, Thromboxane A2 receptor (Homo sapiens, UniProt P21731); type: functional, cell-based
T2 sequence (P21731 whole entry): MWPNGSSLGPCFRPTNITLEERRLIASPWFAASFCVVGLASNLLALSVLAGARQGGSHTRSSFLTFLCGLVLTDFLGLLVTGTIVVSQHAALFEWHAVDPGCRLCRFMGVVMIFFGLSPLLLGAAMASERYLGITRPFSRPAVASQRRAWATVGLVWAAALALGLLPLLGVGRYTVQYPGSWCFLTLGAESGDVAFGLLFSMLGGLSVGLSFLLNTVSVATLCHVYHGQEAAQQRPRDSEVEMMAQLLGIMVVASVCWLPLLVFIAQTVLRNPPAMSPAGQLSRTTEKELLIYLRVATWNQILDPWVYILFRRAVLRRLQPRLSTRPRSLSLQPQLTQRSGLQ

[4] = biological target: Vascular endothelial growth factor receptor 2 (Homo sapiens, UniProt P35968); type: functional
Sequence of Vascular endothelial growth factor receptor 2 (P35968 whole entry): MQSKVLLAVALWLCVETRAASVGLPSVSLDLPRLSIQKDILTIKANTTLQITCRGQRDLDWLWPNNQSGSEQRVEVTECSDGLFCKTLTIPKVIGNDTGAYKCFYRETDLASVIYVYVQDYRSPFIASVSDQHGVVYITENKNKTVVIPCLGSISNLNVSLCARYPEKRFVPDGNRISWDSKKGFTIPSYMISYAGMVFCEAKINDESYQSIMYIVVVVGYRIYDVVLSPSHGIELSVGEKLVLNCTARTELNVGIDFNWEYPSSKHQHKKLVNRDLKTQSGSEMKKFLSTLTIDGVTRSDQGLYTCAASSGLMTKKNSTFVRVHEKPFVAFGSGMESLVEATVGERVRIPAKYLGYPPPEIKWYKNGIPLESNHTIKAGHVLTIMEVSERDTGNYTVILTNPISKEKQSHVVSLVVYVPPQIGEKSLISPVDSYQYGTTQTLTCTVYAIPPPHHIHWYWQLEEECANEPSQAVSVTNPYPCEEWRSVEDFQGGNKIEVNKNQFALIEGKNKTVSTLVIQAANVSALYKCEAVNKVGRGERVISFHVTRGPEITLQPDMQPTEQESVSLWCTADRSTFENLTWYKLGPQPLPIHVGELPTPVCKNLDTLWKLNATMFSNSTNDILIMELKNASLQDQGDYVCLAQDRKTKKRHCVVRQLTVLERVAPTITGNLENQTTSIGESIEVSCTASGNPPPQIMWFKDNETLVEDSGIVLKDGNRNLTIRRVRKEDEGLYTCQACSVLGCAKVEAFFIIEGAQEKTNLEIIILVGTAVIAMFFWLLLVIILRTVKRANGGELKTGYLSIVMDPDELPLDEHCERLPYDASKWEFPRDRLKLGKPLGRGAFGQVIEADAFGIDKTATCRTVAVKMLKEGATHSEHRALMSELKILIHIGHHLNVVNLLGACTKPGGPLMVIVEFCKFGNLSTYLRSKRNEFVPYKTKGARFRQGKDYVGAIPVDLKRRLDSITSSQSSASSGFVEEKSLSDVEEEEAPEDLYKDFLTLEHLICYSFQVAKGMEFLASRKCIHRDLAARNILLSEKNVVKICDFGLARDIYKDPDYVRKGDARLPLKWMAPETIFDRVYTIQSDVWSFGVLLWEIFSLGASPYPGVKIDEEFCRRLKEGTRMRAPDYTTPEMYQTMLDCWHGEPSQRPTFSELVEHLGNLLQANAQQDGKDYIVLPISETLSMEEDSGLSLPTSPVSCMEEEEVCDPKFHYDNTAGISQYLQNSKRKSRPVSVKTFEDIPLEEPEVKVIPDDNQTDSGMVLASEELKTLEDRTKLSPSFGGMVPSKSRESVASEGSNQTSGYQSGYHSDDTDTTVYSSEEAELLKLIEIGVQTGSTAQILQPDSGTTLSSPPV

[5] = biological target: T3, Amine oxidase [flavin-containing] A (Homo sapiens, UniProt P21397); type: functional
T3 sequence (P21397 whole entry): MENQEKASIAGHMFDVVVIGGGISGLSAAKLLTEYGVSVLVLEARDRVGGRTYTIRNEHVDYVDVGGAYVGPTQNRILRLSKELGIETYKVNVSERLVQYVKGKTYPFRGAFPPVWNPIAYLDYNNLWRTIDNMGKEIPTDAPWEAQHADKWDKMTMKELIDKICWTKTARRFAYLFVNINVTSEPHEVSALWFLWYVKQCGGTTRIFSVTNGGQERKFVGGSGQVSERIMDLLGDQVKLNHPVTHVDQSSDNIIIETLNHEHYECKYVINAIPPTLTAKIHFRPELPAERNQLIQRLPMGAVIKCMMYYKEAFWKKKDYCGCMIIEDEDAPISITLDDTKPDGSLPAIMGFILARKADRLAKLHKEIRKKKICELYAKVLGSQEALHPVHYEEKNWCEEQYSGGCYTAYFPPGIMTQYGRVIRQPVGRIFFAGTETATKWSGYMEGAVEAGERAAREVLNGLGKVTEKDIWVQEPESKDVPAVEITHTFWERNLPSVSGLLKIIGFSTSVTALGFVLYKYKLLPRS

Estrogen receptor = biological target: T4, Estrogen receptor (Homo sapiens, UniProt P03372)
T4 sequence (P03372 whole entry): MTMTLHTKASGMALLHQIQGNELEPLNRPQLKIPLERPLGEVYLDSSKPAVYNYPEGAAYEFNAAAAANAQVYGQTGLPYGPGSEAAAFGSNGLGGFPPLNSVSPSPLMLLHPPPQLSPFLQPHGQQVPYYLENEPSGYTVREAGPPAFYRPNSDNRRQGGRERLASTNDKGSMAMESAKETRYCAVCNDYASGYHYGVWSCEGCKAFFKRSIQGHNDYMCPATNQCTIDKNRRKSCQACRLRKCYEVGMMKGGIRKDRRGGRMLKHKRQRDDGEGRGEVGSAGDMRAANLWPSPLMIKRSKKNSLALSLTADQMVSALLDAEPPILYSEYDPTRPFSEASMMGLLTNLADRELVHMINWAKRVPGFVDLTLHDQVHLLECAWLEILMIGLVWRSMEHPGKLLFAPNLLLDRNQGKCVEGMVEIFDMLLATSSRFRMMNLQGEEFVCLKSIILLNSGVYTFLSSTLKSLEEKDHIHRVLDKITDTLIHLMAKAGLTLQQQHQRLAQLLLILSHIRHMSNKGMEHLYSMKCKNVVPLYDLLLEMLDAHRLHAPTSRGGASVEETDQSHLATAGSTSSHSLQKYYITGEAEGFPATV

[6] = biological target: T5, Muscarinic acetylcholine receptor M2 (Homo sapiens, UniProt P08172)
T5 sequence (P08172 whole entry): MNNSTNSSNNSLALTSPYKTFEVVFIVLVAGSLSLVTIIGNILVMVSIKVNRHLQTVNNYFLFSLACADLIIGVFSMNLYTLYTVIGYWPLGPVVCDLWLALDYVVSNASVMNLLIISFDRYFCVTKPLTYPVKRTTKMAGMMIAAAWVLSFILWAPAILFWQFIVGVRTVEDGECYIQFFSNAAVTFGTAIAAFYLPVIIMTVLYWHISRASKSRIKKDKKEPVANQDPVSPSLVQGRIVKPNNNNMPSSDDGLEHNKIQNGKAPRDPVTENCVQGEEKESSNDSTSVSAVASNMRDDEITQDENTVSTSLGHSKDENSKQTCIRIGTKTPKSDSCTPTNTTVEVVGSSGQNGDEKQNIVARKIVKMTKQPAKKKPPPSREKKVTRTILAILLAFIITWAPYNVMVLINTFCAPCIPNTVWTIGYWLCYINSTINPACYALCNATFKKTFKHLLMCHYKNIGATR

Adenosine receptor A3 = biological target: T6, Adenosine receptor A3 (Homo sapiens, UniProt P0DMS8)
T6 sequence (P0DMS8 whole entry): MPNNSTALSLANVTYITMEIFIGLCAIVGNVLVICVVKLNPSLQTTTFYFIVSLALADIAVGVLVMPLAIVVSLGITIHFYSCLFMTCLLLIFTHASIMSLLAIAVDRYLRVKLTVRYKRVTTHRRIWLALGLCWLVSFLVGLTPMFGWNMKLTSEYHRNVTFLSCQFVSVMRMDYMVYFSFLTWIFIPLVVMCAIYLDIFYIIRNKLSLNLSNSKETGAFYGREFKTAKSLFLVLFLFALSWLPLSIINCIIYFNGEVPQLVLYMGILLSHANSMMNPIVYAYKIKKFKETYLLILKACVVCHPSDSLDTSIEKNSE

Thromboxane A2 receptor [7] = biological target: T2, Thromboxane A2 receptor; type: functional, cell-based; remark: listed apart in the source
[8] = biological target: Sodium-dependent noradrenaline transporter (Homo sapiens, UniProt P23975)
Sequence of Sodium-dependent noradrenaline transporter (P23975 whole entry): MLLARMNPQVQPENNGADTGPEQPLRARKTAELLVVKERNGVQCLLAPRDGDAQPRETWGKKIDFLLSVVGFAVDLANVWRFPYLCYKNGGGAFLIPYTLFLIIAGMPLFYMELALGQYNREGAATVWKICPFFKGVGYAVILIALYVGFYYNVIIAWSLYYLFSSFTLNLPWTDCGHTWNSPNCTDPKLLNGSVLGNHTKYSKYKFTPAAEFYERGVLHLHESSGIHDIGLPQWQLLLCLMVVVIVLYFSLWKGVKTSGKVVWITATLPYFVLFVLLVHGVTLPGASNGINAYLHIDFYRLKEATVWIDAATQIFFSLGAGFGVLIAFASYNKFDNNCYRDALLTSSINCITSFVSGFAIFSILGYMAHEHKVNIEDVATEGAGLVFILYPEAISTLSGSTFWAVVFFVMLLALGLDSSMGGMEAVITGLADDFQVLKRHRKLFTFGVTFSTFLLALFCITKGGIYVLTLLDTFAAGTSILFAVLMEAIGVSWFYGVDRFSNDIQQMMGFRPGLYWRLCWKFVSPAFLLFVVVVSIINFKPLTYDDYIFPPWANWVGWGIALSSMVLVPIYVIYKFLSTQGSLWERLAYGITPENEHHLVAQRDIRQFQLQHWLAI
Also: assay procedure not described here.

Sequence of Sodium-dependent dopamine transporter (Q01959 whole entry): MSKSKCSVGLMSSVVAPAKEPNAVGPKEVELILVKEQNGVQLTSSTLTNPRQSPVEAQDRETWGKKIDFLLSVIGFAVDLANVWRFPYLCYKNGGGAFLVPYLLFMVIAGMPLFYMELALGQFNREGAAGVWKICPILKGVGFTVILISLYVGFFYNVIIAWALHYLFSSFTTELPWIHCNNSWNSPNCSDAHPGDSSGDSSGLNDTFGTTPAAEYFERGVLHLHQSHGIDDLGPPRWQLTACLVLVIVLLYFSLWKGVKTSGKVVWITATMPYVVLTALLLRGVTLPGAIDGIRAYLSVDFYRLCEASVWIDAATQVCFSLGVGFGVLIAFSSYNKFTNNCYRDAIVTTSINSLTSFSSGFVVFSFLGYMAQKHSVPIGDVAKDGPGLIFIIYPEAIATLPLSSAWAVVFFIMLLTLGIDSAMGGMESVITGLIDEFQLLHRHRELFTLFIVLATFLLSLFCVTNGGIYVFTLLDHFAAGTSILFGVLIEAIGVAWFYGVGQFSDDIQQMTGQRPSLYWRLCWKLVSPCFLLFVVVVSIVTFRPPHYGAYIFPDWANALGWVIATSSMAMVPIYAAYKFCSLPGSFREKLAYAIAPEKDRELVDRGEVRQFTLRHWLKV

CC(C)C[C@H]1C(=O)N2CCC[C@H]2[C@]2(O)O[C@](NC(=O)[C@@H]3C[C@@H]4c5cccc6[nH]cc(c56)C[C@H]4N(C)C3)(C(C)C)C(=O)N12 [DIHYDROERGOCRYPTINE]
AC50 [1]: > 30 µM | AC50 [2]: 0.0125 µM | AC50 (Thromboxane A2 receptor [3]): > 30 µM | AC50 [4]: > 30 µM | AC50 [5]: > 30 µM | AC50 (Estrogen receptor): > 30 µM | AC50 [6]: > 30 µM | AC50 (Adenosine receptor A3): > 30 µM | AC50 (Thromboxane A2 receptor [7]): > 30 µM | AC50 [8]: > 30 µM

N[C@H]1C(O)O[C@H](CO)[C@@H](O)[C@@H]1O (stereo not given in full) [GLUCOSAMINE]
AC50 [1]: > 30 µM | AC50 [2]: > 30 µM | AC50 (Thromboxane A2 receptor [3]): > 30 µM | AC50 [4]: > 30 µM | AC50 [5]: > 30 µM | AC50 (Estrogen receptor): > 30 µM | AC50 [6]: > 30 µM | AC50 (Adenosine receptor A3): > 30 µM | AC50 (Thromboxane A2 receptor [7]): > 30 µM | AC50 [8]: > 30 µM

CC(=O)c1ccc2c(c1)N(CCCN(C)C)c1ccccc1S2 [ACEPROMAZINE]
AC50 [1]: 19.5 µM | AC50 [2]: 0.248 µM | AC50 (Thromboxane A2 receptor [3]): > 30 µM | AC50 [4]: > 30 µM | AC50 [5]: > 30 µM | AC50 (Estrogen receptor): > 30 µM | AC50 [6]: 0.204 µM | AC50 (Adenosine receptor A3): > 30 µM | AC50 (Thromboxane A2 receptor [7]): 13.7 µM | AC50 [8]: 0.161 µM

CCCCOC(=O)C(=O)[C@H]1[C@H](C)C[C@H]2[C@@H]3C[C@H](F)C4=CC(=O)C=C[C@]4(C)[C@H]3[C@@H](O)C[C@@]21C [FLUOCORTIN BUTYL]
AC50 [1]: 27.2 µM | AC50 [2]: > 30 µM | AC50 (Thromboxane A2 receptor [3]): > 30 µM | AC50 [4]: > 30 µM | AC50 [5]: > 30 µM | AC50 (Estrogen receptor): > 30 µM | AC50 [6]: > 30 µM | AC50 (Adenosine receptor A3): 7.82 µM | AC50 (Thromboxane A2 receptor [7]): > 30 µM | AC50 [8]: 29.5 µM

CCOC(=O)/C=C1\SC(N2CCCCC2)C(=O)N1C (stereo not given) [ETOZOLIN]
AC50 [1]: > 30 µM | AC50 [2]: > 30 µM | AC50 (Thromboxane A2 receptor [3]): > 30 µM | AC50 [4]: > 30 µM | AC50 [5]: > 30 µM | AC50 (Estrogen receptor): > 30 µM | AC50 [6]: > 30 µM | AC50 (Adenosine receptor A3): > 30 µM | AC50 (Thromboxane A2 receptor [7]): > 30 µM | AC50 [8]: > 30 µM

Clc1ccc(C(OCCN2CCCCC2)c2ccccc2)cc1 (stereo not given) [CLOPERASTINE]
AC50 [1]: 1.09 µM | AC50 [2]: 20.1 µM | AC50 (Thromboxane A2 receptor [3]): > 30 µM | AC50 [4]: > 30 µM | AC50 [5]: > 30 µM | AC50 (Estrogen receptor): > 30 µM | AC50 [6]: 0.331 µM | AC50 (Adenosine receptor A3): > 30 µM | AC50 (Thromboxane A2 receptor [7]): 17 µM | AC50 [8]: 6.39 µM
